21 compounds from ChEMBL document CHEMBL1201862, “PubChem BioAssay data set” (2004) can be followed below.

In general, AC50 refers to the concentration at which the activity in the assay is half-maximal. A word on the CC50: it is the concentration at which the toxic effect on the cells reaches its halfway point. The EC50 is the midpoint of the concentration-response curve. As a reminder, the IC50 is the concentration that gives 50% inhibition. One may read the GI50 as the concentration giving 50% growth inhibition.

In one data set the test system is HEK293. The experiment in a line: inhibitors of LMP1-driven NF-kB reporter, dose response, cell-based, HEK293, luciferase, cherry-pick (AID 588343). The format is functional. The conditions noted are these: Homo sapiens.
For a further data set, the target named is Cytochrome P450 2D6 (Homo sapiens, UniProt P10635).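 Further: CYP2D6 member of a cytochrome P450 panel assay.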
Chain of Cytochrome P450 2D6 (P10635 whole entry): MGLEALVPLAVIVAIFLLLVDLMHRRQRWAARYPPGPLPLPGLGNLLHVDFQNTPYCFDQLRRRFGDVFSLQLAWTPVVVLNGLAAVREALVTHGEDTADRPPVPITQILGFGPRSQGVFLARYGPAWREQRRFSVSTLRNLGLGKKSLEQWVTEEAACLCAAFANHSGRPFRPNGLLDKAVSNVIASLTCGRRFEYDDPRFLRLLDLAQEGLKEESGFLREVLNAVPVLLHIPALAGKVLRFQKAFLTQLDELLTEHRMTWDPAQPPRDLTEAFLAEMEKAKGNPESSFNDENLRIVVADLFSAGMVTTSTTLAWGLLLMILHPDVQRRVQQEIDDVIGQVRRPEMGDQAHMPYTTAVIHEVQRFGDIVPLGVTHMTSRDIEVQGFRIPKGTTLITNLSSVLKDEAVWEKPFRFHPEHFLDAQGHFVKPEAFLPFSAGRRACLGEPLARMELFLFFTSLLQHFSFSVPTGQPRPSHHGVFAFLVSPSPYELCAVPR
In a further data set the target is Cytochrome P450 3A4 (Homo sapiens, UniProt P08684).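 Further: CYP3A4 tested as one member of a cytochrome P450 panel screen.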
Chain of Cytochrome P450 3A4 (P08684 whole entry): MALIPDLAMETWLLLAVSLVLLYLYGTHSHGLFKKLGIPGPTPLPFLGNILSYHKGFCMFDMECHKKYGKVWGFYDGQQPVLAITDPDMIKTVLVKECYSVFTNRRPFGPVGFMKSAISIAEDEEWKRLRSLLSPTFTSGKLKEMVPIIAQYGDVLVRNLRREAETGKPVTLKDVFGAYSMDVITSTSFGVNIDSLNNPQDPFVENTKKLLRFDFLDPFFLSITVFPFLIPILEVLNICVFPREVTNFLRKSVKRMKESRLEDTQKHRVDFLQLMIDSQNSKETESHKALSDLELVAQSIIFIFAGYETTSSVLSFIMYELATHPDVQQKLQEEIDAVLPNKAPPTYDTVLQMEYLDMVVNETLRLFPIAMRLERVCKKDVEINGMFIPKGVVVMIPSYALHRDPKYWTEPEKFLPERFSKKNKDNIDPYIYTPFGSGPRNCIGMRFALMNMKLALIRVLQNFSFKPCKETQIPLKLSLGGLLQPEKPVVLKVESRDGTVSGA
A further data set has as its system Vero. The data set is described as follows: Vero cell cytotoxicity, cytotoxicity control for flavivirus capping enzyme inhibitors (AID 588742). Conditions: Chlorocebus sabaeus. Type of data set: functional.
Data set [1] concerns the target T1, Replicative DNA helicase DnaB (Mycobacterium tuberculosis, UniProt P9WMR3).
T1 sequence (P9WMR3 whole entry): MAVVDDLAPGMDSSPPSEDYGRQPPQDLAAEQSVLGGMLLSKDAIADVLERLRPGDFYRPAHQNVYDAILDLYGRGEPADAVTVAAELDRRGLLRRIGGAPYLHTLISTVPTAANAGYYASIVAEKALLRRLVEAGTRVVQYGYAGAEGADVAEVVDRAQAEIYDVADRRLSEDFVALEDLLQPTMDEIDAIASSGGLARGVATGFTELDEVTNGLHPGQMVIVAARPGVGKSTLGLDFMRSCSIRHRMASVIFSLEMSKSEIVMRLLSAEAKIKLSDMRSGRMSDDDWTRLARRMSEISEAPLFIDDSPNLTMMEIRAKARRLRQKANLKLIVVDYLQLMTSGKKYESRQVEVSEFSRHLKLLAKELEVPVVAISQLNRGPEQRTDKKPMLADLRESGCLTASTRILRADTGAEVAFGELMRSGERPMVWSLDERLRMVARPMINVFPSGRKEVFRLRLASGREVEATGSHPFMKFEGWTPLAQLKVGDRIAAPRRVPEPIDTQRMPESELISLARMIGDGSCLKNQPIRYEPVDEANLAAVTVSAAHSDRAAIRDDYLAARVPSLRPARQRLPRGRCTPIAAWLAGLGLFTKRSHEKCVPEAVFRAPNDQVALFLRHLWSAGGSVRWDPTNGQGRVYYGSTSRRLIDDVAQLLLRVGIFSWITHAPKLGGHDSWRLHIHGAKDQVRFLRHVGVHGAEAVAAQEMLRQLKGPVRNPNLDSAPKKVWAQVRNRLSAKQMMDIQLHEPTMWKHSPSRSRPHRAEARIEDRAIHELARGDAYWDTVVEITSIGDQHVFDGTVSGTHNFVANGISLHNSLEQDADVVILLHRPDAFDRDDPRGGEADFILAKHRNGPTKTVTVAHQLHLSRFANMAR
The data set is described as follows: DnaB intein splicing inhibitors, dose response, biochemical, cell-free fluorescence (AID 449749). The format is functional.

For another data set, the target named is T2, Protein RecA (Mycobacterium tuberculosis, UniProt P9WHJ3).
T2 sequence (P9WHJ3 whole entry): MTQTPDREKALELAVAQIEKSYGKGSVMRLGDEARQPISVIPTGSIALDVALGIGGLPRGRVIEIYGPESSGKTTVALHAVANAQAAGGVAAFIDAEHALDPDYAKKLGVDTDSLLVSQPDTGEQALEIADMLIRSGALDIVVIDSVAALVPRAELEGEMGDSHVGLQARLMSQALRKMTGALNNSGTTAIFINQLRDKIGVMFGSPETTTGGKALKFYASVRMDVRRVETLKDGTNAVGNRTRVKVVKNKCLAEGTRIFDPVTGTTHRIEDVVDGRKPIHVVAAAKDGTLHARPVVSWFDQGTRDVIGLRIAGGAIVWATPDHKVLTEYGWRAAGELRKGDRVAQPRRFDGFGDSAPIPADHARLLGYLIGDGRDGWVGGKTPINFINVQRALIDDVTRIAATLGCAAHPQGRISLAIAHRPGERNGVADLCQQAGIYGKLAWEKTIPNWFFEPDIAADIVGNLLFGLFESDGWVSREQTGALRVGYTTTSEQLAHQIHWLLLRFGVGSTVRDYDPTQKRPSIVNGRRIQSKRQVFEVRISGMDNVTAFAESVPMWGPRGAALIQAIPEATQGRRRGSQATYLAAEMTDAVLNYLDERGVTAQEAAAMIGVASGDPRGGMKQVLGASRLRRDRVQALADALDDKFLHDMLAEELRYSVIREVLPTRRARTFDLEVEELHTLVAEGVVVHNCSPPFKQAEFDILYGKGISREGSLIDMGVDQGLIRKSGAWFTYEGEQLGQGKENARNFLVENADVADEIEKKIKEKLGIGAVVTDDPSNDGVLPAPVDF
The experiment in a line: Fluorescence Cell-Free Homogeneous Dose Retest to Identify Inhibitors of RecA-Intein Splicing Activity. [Related pubchem assays (depositor defined):AID2097, AID2223, AID489010, AID492950]. The format is functional.

Another data set concerns the target Genome polyprotein (dengue virus type 2, UniProt P29990). The data set is described as follows: Dengue-2 NS5 methyltransferase inhibitors, primary screen, biochemical, confirmation dose response (AID 588689). Type of data set: functional.
Data set [2] has as its target Voltage-gated inwardly rectifying potassium channel KCNH2 (Homo sapiens, UniProt Q12809). The conditions noted are these: Potency.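 Further: confirmatory quantitative high-throughput screen measuring inhibition of hERG channel activity.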
For a further data set, the target named is Cytochrome P450 2C9 (Homo sapiens, UniProt P11712).
Chain of Cytochrome P450 2C9 (P11712 whole entry): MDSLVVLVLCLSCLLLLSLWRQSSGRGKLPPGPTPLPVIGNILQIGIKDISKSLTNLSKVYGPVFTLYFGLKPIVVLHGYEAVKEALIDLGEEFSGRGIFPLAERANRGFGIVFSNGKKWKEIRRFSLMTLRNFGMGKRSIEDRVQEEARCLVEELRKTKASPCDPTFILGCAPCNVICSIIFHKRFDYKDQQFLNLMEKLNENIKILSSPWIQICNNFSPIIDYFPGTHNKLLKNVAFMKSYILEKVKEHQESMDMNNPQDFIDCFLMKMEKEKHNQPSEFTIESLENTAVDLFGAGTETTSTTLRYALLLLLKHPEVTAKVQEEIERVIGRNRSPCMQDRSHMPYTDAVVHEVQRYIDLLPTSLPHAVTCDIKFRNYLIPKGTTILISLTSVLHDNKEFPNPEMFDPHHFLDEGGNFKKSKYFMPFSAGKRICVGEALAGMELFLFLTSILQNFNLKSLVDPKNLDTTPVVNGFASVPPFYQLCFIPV
The next data set deals with T3, Cytochrome P450 1A2 (Homo sapiens, UniProt P05177).
T3 sequence (P05177 whole entry): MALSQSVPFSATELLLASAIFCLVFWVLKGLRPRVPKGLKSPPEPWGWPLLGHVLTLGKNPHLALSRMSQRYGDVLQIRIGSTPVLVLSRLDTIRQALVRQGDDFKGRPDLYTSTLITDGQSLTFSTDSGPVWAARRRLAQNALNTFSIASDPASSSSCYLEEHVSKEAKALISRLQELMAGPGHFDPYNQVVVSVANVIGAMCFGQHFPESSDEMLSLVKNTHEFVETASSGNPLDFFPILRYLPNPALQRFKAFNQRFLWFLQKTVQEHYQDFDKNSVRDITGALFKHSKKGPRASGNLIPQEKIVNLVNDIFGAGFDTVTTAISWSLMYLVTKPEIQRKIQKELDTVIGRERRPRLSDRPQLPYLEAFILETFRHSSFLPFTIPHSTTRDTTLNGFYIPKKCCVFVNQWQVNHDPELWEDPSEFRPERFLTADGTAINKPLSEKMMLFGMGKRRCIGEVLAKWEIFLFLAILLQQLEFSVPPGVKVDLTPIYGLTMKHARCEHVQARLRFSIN

The nature of data set [3]: HepG2 cell cytotoxicity, dose response, cytotoxicity control for Shn3 inhibitor project, CellTiter-Glo, cherry-picked (AID 624134). The format is functional, cell-based. A general note: In ATP-based viability assays light output follows the ATP content of the culture.
Data set [4] can be described thus: Shn3 3'UTR reporter inhibitors, dose response, cell-based, Clone20 osteoblasts, firefly luciferase, cherry-picked (AID 624132).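 Further: firefly luciferase luminescence from reporter carrying the Shn3 3'UTR in osteoblasts.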 The format is functional.
Data set [5] can be described thus: control 3'UTR Renilla luciferase suppression, dose response, counter-screen for Shn3 inhibitor project, cell-based, Clone20-Shn3RL, cherry-picked (AID 624133). The format is functional. A general note: The purpose of a counterscreen is to sort out artefacts and off-target activity.
For data set [6], the target named is Heat shock protein HSP 90-alpha (Homo sapiens, UniProt P07900). Type of data set: functional, organism-based.
Data set [7] is described as follows: Luminescence Cell-Based Dose Retest to Confirm Inhibitors of Cancer Stem Cells. [Related pubchem assays (depositor defined):AID2717, AID2721]. Type of data set: functional. Conditions: Homo sapiens.
Data set [8] is described as follows: HEp-2 cell cytotoxicity, dose response, cytotoxicity control for RSV inhibitor project, HTS (AID 2410). Type of data set: functional. The conditions noted are these: human respiratory syncytial virus.
The test system of another data set is P388. The experiment in a line: cells. The format is functional. Conditions: Mus musculus.
Another data set concerns SN12K1. The experiment in a line: cells. The format is functional. Conditions: Homo sapiens.
The subject of another data set is P388/ADR. The data set is described as follows: cells. The conditions noted are these: Mus musculus. Type of data set: functional.
The next data set has as its target Cytochrome P450 2C19 (Homo sapiens, UniProt P33261). The data set is described as follows: Cytochrome panel assay with activity outcomes. Panel member name: p450-cyp2c19 Compounds with AC50 equal or less than 10 uM are considered active. The format is functional. Conditions: read-out: AC50.

Activity calls are given as the source filed them.

Chain of Voltage-gated inwardly rectifying potassium channel KCNH2 (Q12809 whole entry): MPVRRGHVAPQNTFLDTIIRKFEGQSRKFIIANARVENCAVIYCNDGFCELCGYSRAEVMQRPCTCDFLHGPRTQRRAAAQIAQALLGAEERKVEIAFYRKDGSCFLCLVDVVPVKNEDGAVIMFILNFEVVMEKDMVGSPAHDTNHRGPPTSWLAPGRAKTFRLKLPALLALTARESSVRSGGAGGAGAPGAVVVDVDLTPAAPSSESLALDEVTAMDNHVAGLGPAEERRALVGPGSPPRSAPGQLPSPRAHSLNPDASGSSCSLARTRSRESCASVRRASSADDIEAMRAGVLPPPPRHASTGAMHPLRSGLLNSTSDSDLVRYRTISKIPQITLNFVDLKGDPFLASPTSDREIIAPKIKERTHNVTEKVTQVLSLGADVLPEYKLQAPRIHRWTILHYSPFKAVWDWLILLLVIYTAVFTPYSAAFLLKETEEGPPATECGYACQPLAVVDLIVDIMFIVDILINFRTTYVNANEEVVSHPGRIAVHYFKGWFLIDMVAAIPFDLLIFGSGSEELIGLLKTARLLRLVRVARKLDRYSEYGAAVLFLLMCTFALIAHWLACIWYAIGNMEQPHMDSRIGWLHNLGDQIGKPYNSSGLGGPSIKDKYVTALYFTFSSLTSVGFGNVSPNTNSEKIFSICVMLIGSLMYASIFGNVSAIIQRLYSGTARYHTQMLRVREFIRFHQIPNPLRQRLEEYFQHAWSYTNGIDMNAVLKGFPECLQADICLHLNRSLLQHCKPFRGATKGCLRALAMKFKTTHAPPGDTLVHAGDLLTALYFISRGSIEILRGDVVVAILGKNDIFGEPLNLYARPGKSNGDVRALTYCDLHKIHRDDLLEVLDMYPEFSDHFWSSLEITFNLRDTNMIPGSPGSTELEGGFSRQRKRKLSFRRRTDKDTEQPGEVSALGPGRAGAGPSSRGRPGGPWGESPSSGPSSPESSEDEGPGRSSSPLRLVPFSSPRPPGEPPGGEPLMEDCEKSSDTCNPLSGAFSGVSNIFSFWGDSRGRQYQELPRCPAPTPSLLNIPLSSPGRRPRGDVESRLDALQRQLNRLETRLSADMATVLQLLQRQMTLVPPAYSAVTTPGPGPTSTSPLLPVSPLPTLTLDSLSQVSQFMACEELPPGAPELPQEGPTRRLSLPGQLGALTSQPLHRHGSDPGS
Chain of Genome polyprotein (P29990 2492-3391 limits assumed): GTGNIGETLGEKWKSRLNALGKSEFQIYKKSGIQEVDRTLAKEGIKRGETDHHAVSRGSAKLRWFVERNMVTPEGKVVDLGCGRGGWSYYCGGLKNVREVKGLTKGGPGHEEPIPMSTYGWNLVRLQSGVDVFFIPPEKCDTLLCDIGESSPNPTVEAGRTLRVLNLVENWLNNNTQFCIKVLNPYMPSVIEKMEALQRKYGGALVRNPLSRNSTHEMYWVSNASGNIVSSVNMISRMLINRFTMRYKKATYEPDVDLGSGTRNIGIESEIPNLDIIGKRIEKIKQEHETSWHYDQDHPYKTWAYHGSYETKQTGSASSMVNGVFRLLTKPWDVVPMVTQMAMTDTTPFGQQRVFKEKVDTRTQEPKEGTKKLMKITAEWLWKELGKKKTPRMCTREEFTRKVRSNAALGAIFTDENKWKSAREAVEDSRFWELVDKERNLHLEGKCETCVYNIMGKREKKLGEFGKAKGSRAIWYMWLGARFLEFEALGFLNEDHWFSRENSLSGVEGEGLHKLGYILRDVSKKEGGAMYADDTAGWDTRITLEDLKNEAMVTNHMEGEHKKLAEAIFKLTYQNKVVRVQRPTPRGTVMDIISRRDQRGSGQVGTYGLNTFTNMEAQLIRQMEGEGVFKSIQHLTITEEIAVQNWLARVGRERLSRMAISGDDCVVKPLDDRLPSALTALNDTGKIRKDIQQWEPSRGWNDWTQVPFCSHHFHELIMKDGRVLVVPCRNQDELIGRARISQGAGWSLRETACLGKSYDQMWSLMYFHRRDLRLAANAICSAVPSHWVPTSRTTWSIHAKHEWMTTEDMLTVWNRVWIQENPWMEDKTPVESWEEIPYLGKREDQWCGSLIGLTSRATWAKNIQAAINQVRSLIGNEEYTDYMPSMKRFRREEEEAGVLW
Chain of Cytochrome P450 2C19 (P33261 whole entry): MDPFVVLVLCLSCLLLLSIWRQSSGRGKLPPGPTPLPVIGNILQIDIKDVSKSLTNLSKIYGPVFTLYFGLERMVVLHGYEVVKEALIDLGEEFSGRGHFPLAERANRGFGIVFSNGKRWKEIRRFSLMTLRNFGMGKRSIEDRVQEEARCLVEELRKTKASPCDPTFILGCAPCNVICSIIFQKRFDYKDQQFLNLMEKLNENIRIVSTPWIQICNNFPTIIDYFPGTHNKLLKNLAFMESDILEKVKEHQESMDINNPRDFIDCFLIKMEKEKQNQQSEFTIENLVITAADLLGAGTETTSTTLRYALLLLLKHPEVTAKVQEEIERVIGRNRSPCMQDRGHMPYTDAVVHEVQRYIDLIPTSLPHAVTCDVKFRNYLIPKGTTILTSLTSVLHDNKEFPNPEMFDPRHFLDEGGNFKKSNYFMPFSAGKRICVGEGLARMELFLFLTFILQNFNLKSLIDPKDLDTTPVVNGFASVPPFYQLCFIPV

With `COCCN1CSC(=S)N(Cc2ccco2)C1`, in the data set on HEK293, the AC50 is 0.688 µM (active).
`Cc1noc(C)c1C(=O)N1CCC2(CCN(C(=O)Nc3ccccc3)CC2)CC1`: the figures for the concentration at half-maximal activity (AC50) at Cytochrome P450 2D6 and at Cytochrome P450 3A4 were 12.6 µM (inconclusive) and “inconclusive”, respectively.
With `COC(=O)c1c(NC(=O)/C=C/C(=O)O)sc(C)c1-c1ccc(C(C)C)cc1`, the CC50 in the data set with Vero was > 40 µM (active). For the same compound, the AC50 in data set [1] is 6.48 µM (active). Also, the EC50 on Protein RecA was 2.4 µM (active). In addition, at Genome polyprotein, the IC50 was 65 µM (active).
As for `CCCCOC(=O)COc1ccc(Cl)cc1Cl`, the AC50 in [2] is 50.1 µM (inconclusive).
As to `O=[N+]([O-])c1ccc(CSc2ncnc3c2ncn3[C@@H]2O[C@H](CO)[C@H](O)[C@H]2O)cc1`, in data set [2], the AC50 is 35.5 µM (inconclusive).
For the compound `CCCn1nnc(NC(=O)Cc2ccccc2)n1`, the AC50 is 0.00562 µM (inconclusive) at Cytochrome P450 2C9, “inconclusive” on Cytochrome P450 3A4 and 28.2 µM (inconclusive) on Cytochrome P450 1A2.
Take `COc1ccc(NC(=O)c2sc3ncnc(N4CCN(c5ccccn5)CC4)c3c2C)cc1Cl`: the AC50 in [3] is > 70 µM (inactive); in data set [4], 4.08 µM (active); with HEK293, 11.6 µM (active); in data set [5], 3.19 µM (active); in data set [6] it was 6.41 µM (active).
In the case of `N#Cc1cccc(NC(=O)N2CC3(CCN(C(=O)c4cnccn4)CC3)C2)c1`, the concentration at half-maximal activity (AC50) result at Cytochrome P450 3A4 is “inconclusive”; at Cytochrome P450 1A2, 39.8 µM (inconclusive).
Take `Cc1cccc(Nc2nc(-c3ccc(O)cc3O)cs2)n1`: the results for the CC50 (in the data set on Vero; in data set [8]) were > 40 µM (active) and 43.6 µM (active), respectively. Further, the concentration at half-maximal activity (AC50) in data set [7] is 6.88 µM (active).
Consider `CCCCOC1(c2ccccc2)OC(=O)c2ccccc21` (centres undefined), for which the AC50 on Cytochrome P450 2C9 was 17.8 µM (inconclusive); on Cytochrome P450 3A4 it was “inconclusive”.
As to `O=C1CCCN1CCC/N=c1/cc2n(-c3ccc(Cl)cc3)c3ccccc3nc-2cc1Nc1ccc(Cl)cc1`, the results for the GI50 in the data set on P388, in the data set on SN12K1 and in the data set with P388/ADR were 3.45 µM (inactive), 9.66 µM (inactive) and 3.53 µM (inactive), respectively.
The corresponding values for `C=C1C(=O)O[C@@H]2[C@H](O)[C@@H](C)[C@@H]3C=CC(=O)[C@@]3(C)[C@@H](OC(=O)/C(C)=C/C)[C@H]12` are 0.0933 µM (active), 0.34 µM (active) and 0.104 µM (active).
As to `CC(C)(C)c1ccc2c(c1)OP1(Oc3c(Cl)cc(Cl)c4cccnc34)(O2)Oc2ccc(C(C)(C)C)cc2O1`, the GI50 was 0.889 µM (active) in the data set on P388, 6.21 µM (inactive) in the data set with SN12K1 and 2.84 µM (inactive) in the data set with P388/ADR.
As to `COc1cc2c(cc1O)N=C[C@@H]1CC[C@@H](O)N1C2=O.COc1cc2c(cc1O)N=C[C@@H]1CC[C@H](O)N1C2=O`, the GI50 in the data set with P388 was 0.582 µM (active); with SN12K1 it was 0.53 µM (active); in the data set on P388/ADR, 0.173 µM (active).
Turning to `CS(=O)(=O)CS(=O)(=O)OCCCl`, the figures for the GI50 with P388, with SN12K1 and in the data set on P388/ADR were 17.9 µM (inactive), 152 µM (inactive) and 27.7 µM (inactive), respectively.
For the compound `Sc1nnc(-c2ccco2)n1/N=C/C=C/c1ccco1`, the cytotoxic concentration (CC50) in the data set on Vero is > 40 µM (active).
Regarding `CCC/N=C/c1c(CCC)nn(-c2nc3ccccc3s2)c1O`, the AC50 on Cytochrome P450 2D6 is 25.1 µM (inconclusive); on Cytochrome P450 2C19 it was 20 µM (inconclusive); on Cytochrome P450 3A4, “inconclusive”.
Consider `C[n+]1ccc(Nc2ccc(NC(=O)c3ccc(Nc4cc[n+](C)c5ccc([N+](=O)[O-])cc45)cc3[N+](=O)[O-])cc2)cc1`, for which the figures for the GI50 in the data set with P388 and with SN12K1 were 0.771 µM (active) and 23.9 µM (inactive), respectively.
On to `Cc1c(C(=O)O)c(O)cc2c1C(=O)c1c(O)c([C@H]3O[C@H](CO)[C@@H](O)[C@H](O)[C@H]3O)c(O)c(O)c1C2=O` [CARMINE], for which the half-maximal activity concentration (AC50) in data set [2] is 79.4 µM (inconclusive).
For the compound `ClC1=C(Cl)C2(Cl)C3C(Cl)C=CC3C1(Cl)C2(Cl)Cl` (centres undefined) [HEPTACHLOR], the AC50 in [7] was 6.1 µM (active); in data set [2], 31.6 µM (inconclusive).
`CC[C@H](NC(=O)c1c(C)c(-c2ccccc2)nc2ccccc12)c1ccccc1` [SB-222200]: the AC50 in data set [2] was 35.5 µM (inconclusive).
